Some test systems named below: TK-10 renal; SK-MEL-2 melanoma; SK-MEL-5 melanoma; HCT-116 colon; T-47D breast; MCF7 breast; MALME-3M melanoma; SF-268 CNS; SNB-75 CNS; OVCAR-5 ovarian.
Holding throughout (assay): NCI tumour cell line growth inhibition, 48 h

SMILES strings stand for the structures.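 Tested at 5 concentrations; 48 h exposure; 96-well plates; endpoints linearly interpolated, else capped at highest concentration. The concentration for 50% growth inhibition is given as GI50. TGI: concentration producing complete growth inhibition.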

Consider `Cc1nn(CNc2ccccc2C(F)(F)F)c(=S)n1/N=C/c1cccc2cccnc12`, for which the GI50 was greater than 100000 nM in the assay with TK-10 renal; greater than 100000 nM in the assay with SK-MEL-2 melanoma; greater than 100000 nM in the assay with SK-MEL-5 melanoma; 44600 nM in the assay with HCT-116 colon; greater than 100000 nM with T-47D breast; 54900 nM in the assay on MCF7 breast. For the same molecule, the GI50 in the assay with MALME-3M melanoma was greater than 100000 nM; in the assay with SF-268 CNS it was 32500 nM; with SNB-75 CNS it was 27400 nM; with OVCAR-5 ovarian, greater than 100000 nM. Further, the TGI with TK-10 renal, in the assay with SK-MEL-2 melanoma, with SK-MEL-5 melanoma, with HCT-116 colon, in the assay on T-47D breast and in the assay on MCF7 breast was greater than 100 µM throughout. Besides, the TGI in the assay on MALME-3M melanoma, in the assay on SF-268 CNS, in the assay on SNB-75 CNS and with OVCAR-5 ovarian was greater than 100 µM in each case.
For `O=C(O)c1cc(-c2ccc3cc4c(cc3c2)OCO4)nc2ccccc12`, the TGI with TK-10 renal, with SK-MEL-2 melanoma, in the assay with SK-MEL-5 melanoma, with HCT-116 colon, with T-47D breast and in the assay on MCF7 breast was greater than 100 µM each time. Moreover, the TGI in the assay with MALME-3M melanoma, in the assay on SF-268 CNS, in the assay with SNB-75 CNS and in the assay on OVCAR-5 ovarian was greater than 100 µM each time.
Consider `COc1ccccc1Nc1cc(O)c2c(=O)cc(-c3ccccc3)oc2c1`, for which the GI50 in the assay on TK-10 renal was 10400 nM; in the assay on SK-MEL-2 melanoma, 5620 nM; with SK-MEL-5 melanoma, 3000 nM; in the assay with HCT-116 colon, 3310 nM; in the assay on T-47D breast it was 4360 nM; with MCF7 breast, 1630 nM. Moreover, the GI50 in the assay on MALME-3M melanoma is 2130 nM; with SF-268 CNS, 4710 nM; in the assay with SNB-75 CNS, 2390 nM; in the assay with OVCAR-5 ovarian, 4820 nM. The TGI with TK-10 renal is 28.6 µM; in the assay with SK-MEL-2 melanoma, 34.2 µM; in the assay on SK-MEL-5 melanoma, 9.58 µM; with HCT-116 colon, greater than 100 µM; in the assay with T-47D breast it was greater than 100 µM; in the assay on MCF7 breast it was greater than 100 µM. Further, the TGI in the assay with MALME-3M melanoma amounted to 11.9 µM; with SF-268 CNS, 48.2 µM; with SNB-75 CNS, 8.5 µM; in the assay on OVCAR-5 ovarian it was 27.3 µM.
On to `COc1ccc2ncn(-c3cc(O[C@H](C)c4ccccc4C(F)(F)F)c(C(N)=O)s3)c2c1`, for which the GI50 was 1330 nM in the assay with TK-10 renal; 120 nM in the assay with SK-MEL-2 melanoma; 169 nM in the assay on SK-MEL-5 melanoma; 125 nM with HCT-116 colon; 2860 nM in the assay with T-47D breast; 63.7 nM with MCF7 breast. The GI50 with MALME-3M melanoma was 4500 nM; in the assay on SF-268 CNS, 235 nM; in the assay with SNB-75 CNS, 917 nM; in the assay with OVCAR-5 ovarian it was 162 nM. Further, the TGI with TK-10 renal was found to be 7.22 µM; in the assay on SK-MEL-2 melanoma it was 4.82 µM; in the assay on SK-MEL-5 melanoma it was 3.55 µM; with HCT-116 colon, 3.53 µM; with T-47D breast it was 7.2 µM; in the assay with MCF7 breast, 13 µM. In addition, the TGI came to 9.51 µM in the assay with MALME-3M melanoma, 8.95 µM with SF-268 CNS, 6.6 µM with SNB-75 CNS and 14.9 µM in the assay with OVCAR-5 ovarian.
As for `CC(C)C[C@H](NC(=O)CNC(=O)c1cc(Cl)ccc1Cl)B(O)O`, the GI50 is less than 13.8 nM in the assay with TK-10 renal; less than 14.5 nM in the assay on SK-MEL-2 melanoma; less than 13.6 nM in the assay with SK-MEL-5 melanoma; less than 13.1 nM in the assay with HCT-116 colon; less than 15.6 nM with T-47D breast; less than 19.6 nM with MCF7 breast. The GI50 is less than 11.5 nM in the assay with MALME-3M melanoma, 34.3 nM in the assay on SF-268 CNS, 25.6 nM in the assay on SNB-75 CNS and 49.3 nM in the assay with OVCAR-5 ovarian. Moreover, the TGI with TK-10 renal is 0.0517 µM; in the assay with SK-MEL-2 melanoma, 0.0364 µM; in the assay on SK-MEL-5 melanoma it was 0.0305 µM; in the assay on HCT-116 colon, 0.659 µM; with T-47D breast, 0.0602 µM; with MCF7 breast, greater than 52.4 µM. The TGI in the assay on MALME-3M melanoma came to 0.035 µM; in the assay with SF-268 CNS, 0.22 µM; in the assay with SNB-75 CNS it was 0.124 µM; in the assay on OVCAR-5 ovarian, 0.551 µM.
As to `O=C1N[C@@H]2[C@@H](O)[C@@H](O)[C@H](O)C[C@H]2c2cc3c(c(O)c21)OCCO3`, the GI50 in the assay on TK-10 renal is 684 nM; in the assay with SK-MEL-2 melanoma, 286 nM; in the assay with SK-MEL-5 melanoma it was 192 nM; in the assay with HCT-116 colon it was 107 nM; in the assay with T-47D breast it was 176 nM; in the assay on MCF7 breast, 154 nM. The GI50 in the assay with MALME-3M melanoma was 209 nM; with SF-268 CNS it was 247 nM; in the assay with SNB-75 CNS, 466 nM; with OVCAR-5 ovarian, 412 nM. For the same molecule, the TGI with TK-10 renal turned out to be 5.09 µM; in the assay with SK-MEL-2 melanoma it was 1.06 µM; in the assay with SK-MEL-5 melanoma, 0.478 µM; in the assay with HCT-116 colon, 1.22 µM; in the assay with T-47D breast, 1.31 µM; in the assay with MCF7 breast, 0.796 µM. Further, the TGI in the assay on MALME-3M melanoma stood at 0.731 µM; in the assay with SF-268 CNS it was 1.08 µM; in the assay on SNB-75 CNS it was 2.62 µM; with OVCAR-5 ovarian it was 3.28 µM.
With `COc1ccc(/C=C\c2cc(OC)c(OC)c(OC)c2)cc1OCC(=O)Nc1nc2ccc(F)cc2s1`, the GI50 in the assay with TK-10 renal is 9890 nM; in the assay on SK-MEL-2 melanoma, 8460 nM; in the assay on SK-MEL-5 melanoma, 1760 nM; with HCT-116 colon, 4480 nM; in the assay on T-47D breast it was 3390 nM; with MCF7 breast, 2300 nM. Besides, the GI50 with MALME-3M melanoma is 5220 nM; in the assay on SF-268 CNS it was 7230 nM; with SNB-75 CNS it was 4390 nM; with OVCAR-5 ovarian it was greater than 100000 nM. The TGI in the assay with TK-10 renal is greater than 100 µM; with SK-MEL-2 melanoma it was greater than 100 µM; in the assay on SK-MEL-5 melanoma it was 8.96 µM; in the assay with HCT-116 colon it was greater than 100 µM; in the assay with T-47D breast it was 68.5 µM; in the assay on MCF7 breast it was greater than 100 µM. For the same molecule, the TGI with MALME-3M melanoma, in the assay on SF-268 CNS, with SNB-75 CNS and in the assay with OVCAR-5 ovarian was greater than 100 µM each time.
As for `CC(C)(C)C(=O)OCOP(=O)(NCc1ccccc1)C1CCCN(O)C1=O` (stereo not given), the GI50 in the assay with TK-10 renal is 3120 nM; in the assay on SK-MEL-2 melanoma it was 2850 nM; in the assay with SK-MEL-5 melanoma, 1760 nM; in the assay with HCT-116 colon, 2840 nM; in the assay with T-47D breast, 1980 nM; with MCF7 breast, 2410 nM. Besides, the GI50 in the assay with MALME-3M melanoma was 1000 nM; with SF-268 CNS, 2090 nM; in the assay with SNB-75 CNS, 4970 nM; with OVCAR-5 ovarian, 8990 nM. The TGI in the assay on TK-10 renal was 43.2 µM; in the assay with SK-MEL-2 melanoma, 15.6 µM; in the assay with SK-MEL-5 melanoma, 4.33 µM; with HCT-116 colon, 14.4 µM; in the assay with T-47D breast it was 57.6 µM; with MCF7 breast it was 11.1 µM. The TGI in the assay with MALME-3M melanoma is 6.96 µM; with SF-268 CNS it was greater than 100 µM; in the assay with SNB-75 CNS it was 39.1 µM; in the assay with OVCAR-5 ovarian, greater than 100 µM.
`COc1ccc2c(c1)C(=O)c1c-2n(CCCN(C)C)c(=O)c2ccccc12`: the GI50 with TK-10 renal was 722 nM; in the assay on SK-MEL-2 melanoma, 1860 nM; with SK-MEL-5 melanoma it was 123 nM; in the assay with HCT-116 colon, 213 nM; with T-47D breast, 309 nM; in the assay on MCF7 breast it was 29.5 nM. The GI50 in the assay on MALME-3M melanoma was 483 nM; in the assay with SF-268 CNS it was 258 nM; in the assay with SNB-75 CNS it was 648 nM; in the assay with OVCAR-5 ovarian it was 515 nM. Also, the TGI is 9.32 µM in the assay with TK-10 renal; 7.18 µM with SK-MEL-2 melanoma; 0.406 µM with SK-MEL-5 melanoma; 1.42 µM in the assay with HCT-116 colon; 3.56 µM in the assay with T-47D breast; 2.31 µM in the assay with MCF7 breast. Further, the TGI in the assay with MALME-3M melanoma was 2.06 µM; in the assay with SF-268 CNS, 2.84 µM; with SNB-75 CNS, 5.29 µM; in the assay with OVCAR-5 ovarian, 12.7 µM.
Regarding `Clc1c(Cl)[n+](Cc2ccc3ccccc3c2)cn1Cc1ccc2ccccc2c1`, the GI50 was 1580 nM in the assay on TK-10 renal; 1670 nM in the assay with SK-MEL-2 melanoma; 1130 nM in the assay with SK-MEL-5 melanoma; 1450 nM with HCT-116 colon; 504 nM with T-47D breast; 1320 nM with MCF7 breast. Also, the GI50 in the assay on MALME-3M melanoma is 1400 nM; in the assay on SF-268 CNS it was 1220 nM; with SNB-75 CNS, 836 nM; in the assay on OVCAR-5 ovarian, 1540 nM. Moreover, the TGI with TK-10 renal is 3.11 µM; with SK-MEL-2 melanoma, 3.24 µM; in the assay on SK-MEL-5 melanoma, 2.39 µM; in the assay with HCT-116 colon, 2.87 µM; with T-47D breast it was 2.09 µM; in the assay on MCF7 breast, 2.88 µM. The TGI is 3.15 µM in the assay with MALME-3M melanoma, 2.55 µM in the assay on SF-268 CNS, 2.21 µM in the assay with SNB-75 CNS and 3.32 µM with OVCAR-5 ovarian.
With `Oc1c(Cl)cc(Cl)c(Cl)c1CNCCNCc1c(O)c(Cl)cc(Cl)c1Cl`, the GI50 was 2020 nM in the assay on TK-10 renal; 3400 nM with SK-MEL-2 melanoma; 1350 nM in the assay with SK-MEL-5 melanoma; 731 nM in the assay on HCT-116 colon; 988 nM in the assay with T-47D breast; 1120 nM in the assay on MCF7 breast. Further, the GI50 in the assay with MALME-3M melanoma is 1110 nM; with SF-268 CNS, 997 nM; in the assay on SNB-75 CNS, 2430 nM; with OVCAR-5 ovarian, 2490 nM. Further, the TGI was 11.2 µM in the assay with TK-10 renal; 14.1 µM with SK-MEL-2 melanoma; 8.06 µM in the assay on SK-MEL-5 melanoma; 8.52 µM with HCT-116 colon; greater than 50 µM with T-47D breast; 14.5 µM in the assay on MCF7 breast. Besides, the TGI stood at 9.67 µM in the assay with MALME-3M melanoma, 12.1 µM with SF-268 CNS, 10.6 µM with SNB-75 CNS and 29 µM in the assay on OVCAR-5 ovarian.

(Values after PubChem BioAssay (NCI).)
